From US8399416B2, “Method of using heparin binding motif for treating asthma” (National Tsing Hua University, priority 2008, dated 2013)

What was measured:
[1] = AMAC-labeled LMWH, increasing peptide concentrations, room temperature 15 min
Description: FIG. 9. FACE analysis of synthetic peptides. AMAC-labeled LMWH were incubated without or with increasing concentrations of C1, TAT, D1 and R1 peptides at room temperature for 15 min. Samples were loaded and separated by agarose gel electrophoresis as described for FIG. 2.
Synthetic heparin oligosaccharide (FIG. 1) (Lee, C. J., et al. (2004) J Am Chem Soc 126, 476-477), low molecular weight heparin (LMWH) and PI-88 (kindly provided by Progen Inc., Australia) were labeled with 2-aminoacridone (AMAC) as described (Calabro, A., et al. (2000) Glycobiology 10, 273-281). AMAC-oligosaccharide and proteins were incubated at room temperature for 15 min, loaded onto 1% gels and electrophoresed as described (Holmes, O., et al. (2007) J Mol Biol 367, 395-408).
In addition, because EDN contains a conventional heparin binding sequence, the corresponding peptide, D1 (SEQ ID NO: 4), was also synthesized and tested.

Beas-2B cells = details: biotinylated peptides, 1 h at 4° C.
Description: FIG. 7. Synthetic peptides inhibit ECP binding to cells. A, Beas-2B cells were preincubated with peptides in RPMI 1640 medium for 30 min at 4° C. before incubation with MBP-ECP for an additional 1 h. After treatment, the cells were washed with PBS and fixed with PFA. The level of bound MBP-ECP was assessed by ELISA. The amount of MBP-ECP bound to cells without peptide treatment was set to 100%. The data shown are the means of triplicate experiments. B, Beas2-B cells were incubated with biotinylated peptides for 1 h at 4° C. The amount of peptides bound to cells was assessed as for FIG. 3.
To investigate whether the RWRCK (SEQ ID NO: 8) motif is directly responsible for heparin binding, cell ELISA was conducted using a synthetic peptide, C1 (SEQ ID NO: 3), along with a positive control peptide derived from HIV-TAT, TAT (SEQ ID NO: 6) (Vives, E., et al. (1997) The Journal of biological chemistry 272, 16010-16017; Ziegler, A. and Seelig, J. (2004) Biophysical journal 86, 254-263). […] Therefore, synthetic peptides with heparin binding activity may compete with ECP for cellular binding. Furthermore, the cell surface binding ability of peptides was tested using cell ELISA assay.

[2] = PBS buffer at 25° C.; HMWH 10-20 μM
Description: FIG. 11. Isothermal titration calorimetry of heparin-peptide interaction. The top panels show the differential power time course. Raw data for sequential 6-μl injections of each synthetic peptide in PBS buffer at 25° C. TAT (positive control), B, R1 (negative control), C, C1, and D, D1 into the sample cell containing 1.4 ml HMWH solution (10-20 μM). The total heat released in each injection is proportional to the area under the corresponding peak. […] The solid line represents a non-linear least squares of the reaction heat for the injection.

[3] = system: ECP binding to Beas-2B cells; experiment: Competitive inhibition of MBP-ECP binding to Beas-2B cells (cell ELISA); assay type: cell-based, human; details: Beas-2B cells preincubated with peptides 30 min at 4° C.
Description: FIG. 3. Heparin oligosaccharides inhibit ECP binding to cells. […] The amount of MBP-ECP bound to cells without GAG treatment was set to 100%. C, control (cells were incubated with MBP.) The data shown are the means of triplicate experiments.
FIG. 7. Synthetic peptides inhibit ECP binding to cells. […] The data shown are the means of triplicate experiments.
Beas-2B, a human bronchial epithelial cell line, was cultured in RPMI 1640 medium (Sigma-Aldrich) supplemented with heat-inactivated 10% fetal bovine serum (Gibco/Invitrogen, Carlsbad, Calif.).
The ability of MBP-ECP to bind cells in the presence of serial dilutions of oligosaccharides or peptides was determined as described (Fan, T. C., et al. (2007) Traffic 8, 1778-1795). At the present invention, synthetic heparins (dp3-9) were tested for their ability to interfere with ECP binding to Beas-2B cells. Briefly, confluent monolayers of Beas-2B cells in 96-well plates were pretreated with various concentrations of oligosaccharides or peptides in serum-free RPMI 1640 medium at 4° C. for 30 min before incubation with 5 μg/ml MBP-ECP at 4° C. for 1 h. The cells were then washed with ice-cold PBS and fixed with 2% PFA at room temperature for 15 min prior to blocking with 2% BSA/PBS at room temperature for 90 min. The level of bound MBP-ECP was quantified by ELISA analysis. MBP-ECP was detected using mouse monoclonal anti-MBP and goat anti-mouse horseradish peroxidase (HRP)-conjugated secondary antibody, followed by the enhanced chemiluminescence detection system. The amount of MBP-ECP bound to cells without oligosaccharide or peptide treatment was set to 100%.

Substance | interaction with LMWH (FACE) [1] | cell surface binding ability of peptides (Beas-2B cells) | heat release on binding to HMWH (ITC) [2] | binding of MBP-ECP to cell-surface HS in the presence of peptide [3]
MTQGRCKPVNK-biotin [R1] | did not bind heparin | devoid of such function | no heat release | –
NYRWRCKNQNK-biotin [C1] | decreased amount of free AMAC-LMWH signal | bound to the cell surface | exothermal reaction modes were clearly observed | significantly reduced
YGRKKRRQRRRK-biotin [TAT] | decreased amount of free AMAC-LMWH signal | bound to the cell surface | significant exothermal reaction mode | significantly reduced
